Data as given in PMC11428593 (Antibiotics, 2024).
Converted amounts (≈) assume the structure as drawn. “Also recorded” adds a separate entry of the source. Like-named read-outs stand apart in the source and are kept apart here.

What was measured:
[1] = test system: S. aureus strain USA300LAC; assay: Growth curve-based assay of exponentially growing cells; type: cell-based, Staphylococcus aureus
Procedure: Considering the divergent antimicrobial effects of our new compounds, we proceeded to assess the impact of JC-01-072 and JC-01-074 on the growth of exponentially growing USA300LAC cells. We performed growth-curve-based assays of the USA300LAC cultures that were either left untreated or treated with 4–16 μg/mL of the alkyl pyridinol compound once they reached the mid-log phase (OD600nm~0.2–0.3).
Figure 2 Impact of alkyl pyridinol exposure on exponentially growing S. aureus. An overnight culture of the S. aureus strain USA300LAC was diluted into fresh TSB and grown to mid-exponential phase (OD600nm = 0.2–0.3) prior to treatment with 4–16 µg/mL JC-01-072 (A) and JC-01-074 (B). Optical densities were measured at 600 nm at 10 min intervals for 16–18 h (n = 3, ±S.D.).
The overnight USA300LAC cultures were diluted into fresh TSB media to an O.D.600nm = 0.001 and incubated at 37 °C under shaking conditions (300 rpm) until an O.D.600nm of 0.2–0.3 (early log phase) was reached. The cultures were subsequently transferred to a 96-well polystyrene plate (Alkali Scientific, Fort Lauderdale, FL, USA), following which DMSO (control) or alkyl pyridine compounds were added at the indicated final concentrations. The cells were then incubated at 37 °C for 16 h at 300 rpm, and the O.D.600nm measurements were taken every 10 min for 16 h in a Tecan Infinite 200 plate reader (Tecan, Morgan Hill, CA, USA).

[2] = test system: MRSA USA300LAC; assay: Minimal bactericidal concentration (MBC); type: cell-based, Staphylococcus aureus; settings: for MBC: Staphylococcus aureus, MRSA USA300LAC, concentration at which no CFUs were observed; for bactericidal or bacteriostatic effect: USA300LAC, in words
Procedure: In brief, 10 µL of each culture was serially diluted and plated onto prewarmed LB agar and incubated overnight at 37 °C under static conditions to observe the colony-forming units (CFUs). The concentration at which no CFUs were observed was recorded as the MBC.

[3] = test system: S. aureus/MRSA strains; assay: MIC by broth microdilution, S. aureus/MRSA strains; type: cell-based, Staphylococcus aureus; settings: S. aureus/MRSA strains tested, strain not singled out
Excerpt: (§1) To assess the impact of the nitrogen position in our newly synthesized anaephene derivates, we analyzed their antimicrobial activities against various S. aureus strains, including ATCC 25,923 and the two methicillin-resistant S. aureus (MRSA) strains ATCC 33,591 and ATCC BAA-44. […] We determined the minimum inhibitory concentrations (MIC) of each of our compounds against the different bacterial strains by broth microdilution following the CLSI guidelines. As expected, all five compounds tested were completely ineffective against the Gram-negative P. aeruginosa strain ATCC 27,853 (Table 1).
(§2) The MIC values of the alkyl pyridinol derivatives against the S. aureus strain ATCC 25923, MRSA strains ATCC 33591, ATCC BAA-44, and USA300LAC, as well as the P. aeruginosa strain ATCC 27853, were determined by following the CLSI guidelines for the broth microdilution antibiotic sensitivity testing protocol. In brief, the overnight cultures were diluted into Mueller Hinton Broth (MHB) to a final inoculum concentration of 5 × 10^5 CFU/mL (O.D600nm = 0.00001) and dispensed into a 96-well polystyrene plate (Alkali Scientific, Fort Lauderdale, FL, USA). Alkyl pyridine compounds were diluted into inoculated MHB to the indicated concentrations from stock solutions that would allow for DMSO concentrations below 5%, resulting in a total volume of 200 μL per well. The plates were subsequently incubated at 37 °C for 16 h at 300 rpm. The MIC values, which are defined as the lowest compound concentration that inhibited growth, were determined from three biological replicates.

[4] = test system: MRSA USA300LAC; assay: MIC by broth microdilution (CLSI); type: cell-based, Staphylococcus aureus; settings: Staphylococcus aureus; MRSA USA300LAC; MHB, 37 °C, 16 h; read-out: MIC
Procedure: as §2

[5] = test system: P. aeruginosa ATCC 27853; assay: MIC by broth microdilution (CLSI); type: cell-based; settings: Pseudomonas aeruginosa, ATCC27853, MHB, 37 °C, 16 h
Excerpt: as §1, §2

[6] = test system: MRSA ATCC BAA-44; assay: MIC by broth microdilution (CLSI); type: cell-based; settings: Staphylococcus aureus, MHB, 37 °C, 16 h
Excerpt: as §1, §2

[7] = test system: MRSA ATCC 33591; assay: MIC by broth microdilution (CLSI); type: cell-based; settings: Staphylococcus aureus, MHB, 37 °C, 16 h
Excerpt: as §1, §2

[8] = test system: S. aureus ATCC 25923; assay: MIC by broth microdilution (CLSI); type: cell-based; settings: Staphylococcus aureus, ATCC25923, MHB, 37 °C, 16 h
Excerpt: as §1, §2

[9] = test system: USA300LAC cells; assay: Propidium iodide uptake assay (membrane damage); type: cell-based, Staphylococcus aureus
Excerpt: The alkyl pyridinol derivates synthesized in this study are characterized by high lipophilicity. To determine whether and to what extent these compounds incorporate into and disrupt the phospholipid bilayer of the S. aureus cell envelope, we performed a propidium iodide (PI) uptake assay. Given the membrane-impermeable nature of PI, the fluorophore can be used to assess membrane disruption in cells by measuring its non-specific interaction with DNA, which leads to enhanced fluorescence. […] The extent of membrane damage caused by JC-01-074 occurred in a dose-dependent manner.
Figure 4 JC-01-074 causes significant membrane damage in S. aureus. Membrane damage was evaluated via propidium iodide (PI) staining. […] Treatment of USA300LAC with 2.5% DMSO, 4 µg/mL vancomycin, and 0.25% SDS were included as negative and positive controls, respectively. Cells were collected, washed, resuspended in PBS, and stained with 1 µM PI. PI fluorescence was measured (exc./em. wavelengths: 535/615 nm) and normalized to OD600nm. One-way ANOVA, Dunnett’s multiple-comparison test (* p < 0.05, **** p < 0.0001); (n = 3, ±S.D.).
The plasma membrane integrity was determined using the Propidium Iodide Uptake assay, as previously described. Briefly, the overnight cultures of USA300LAC were diluted into fresh TSB media, grown to an early log phase at 37 °C and 300 rpm, and treated with either DMSO, an alkyl pyridinol derivate, vancomycin, or SDS at the indicated concentrations for 1 h. Following two washing steps, the cells were then resuspended in phosphate-buffered saline (PBS), pH = 7.4, and subsequently stained with 1 µM propidium iodide (PI). The PI fluorescence intensity was determined at an excitation wavelength of 535 nm and an emission wavelength of 615 nm.

[10] = Staphylococcus aureus, MRSA, read-out: MIC

Row | MIC [3] | MIC [3, 10] | MIC [4] | MIC [5] | MIC [6] | MIC [7] | MIC [8] | effect on growth at 1× MIC ([1]; 1× MIC, mid-log USA300LAC) | SMILES | effect on growth of mid-log USA300LAC cells ([1]; 4–16 μg/mL, added at OD600nm ~0.2–0.3) | MBC [2] | bactericidal or bacteriostatic effect [2] | changes in PI intensity ([9]; up to 2× MIC, 1 h exposure) | delay of growth ([1]; 0.5× MIC, mid-log USA300LAC) | PI fluorescence compared to DMSO-treated control ([9]; 1 h treatment at MIC ([…] µg/mL))
1 | 4 to 8 µg/mL | 4 µg/mL (≈ 16.3 µM) | 8 µg/mL (≈ 32.6 µM) | > 128 µg/mL | 4 µg/mL (≈ 16.3 µM) | 4 µg/mL (≈ 16.3 µM) | 4 µg/mL (≈ 16.3 µM) | – | CCCCCCCCCC#Cc1cncc(O)c1 [JC-01-072] | little to no effects | > 128 µg/mL | bacteriostatic; also recorded: no significant killing | minimal changes | – | –
2 | – | 16 µg/mL (≈ 65.2 µM) | 16 µg/mL (≈ 65.2 µM) | > 128 µg/mL | 16 µg/mL (≈ 65.2 µM) | 16 µg/mL (≈ 65.2 µM) | 16 µg/mL (≈ 65.2 µM) | total growth arrest | CCCCCCCCCC#Cc1cccc(O)n1 [JC-01-074] | – | 16 µg/mL (≈ 65.2 µM) | bactericidal | – | 6 to 8 h | about five-fold higher PI fluorescence
